In assay [1] the test system is spontaneously hypertensive rats (SHR). Put plainly: Antihypertensive effect of GLP in SHR after oral administration. The format is in vivo, rat. Particulars: captopril 30 mg/kg·bw. The procedure:
SHRs (male, 10 weeks, 220 ± 20 g body weight) were supplied by Vital River Laboratory Animal Technology Co., Ltd. (Beijing, China). […] Three doses of GLP (1200, 1500, 1800 mg/kg of body weight, BW) was orally administered to SHRs. The blank group (saline) and Captopril (30 mg/kg·bw) group were used as negative and positive control, respectively. BP-98A blood pressure monitor (Softron Biotechnology, Beijing, China) was used to determine blood pressure by the tail-cuff method. […] Animals were treated in accordance with the guidelines of the National Institutes of Health and Use of Laboratory Animals.

The target of another assay is T1, ACE from rabbit lung (Oryctolagus cuniculus, UniProt P12822).
T1 construct: ACE from rabbit lung (EC3.4.15.1); purchased Sigma-Aldrich; host or cells: rabbit lung tissue
T1 sequence (P12822 34-1310): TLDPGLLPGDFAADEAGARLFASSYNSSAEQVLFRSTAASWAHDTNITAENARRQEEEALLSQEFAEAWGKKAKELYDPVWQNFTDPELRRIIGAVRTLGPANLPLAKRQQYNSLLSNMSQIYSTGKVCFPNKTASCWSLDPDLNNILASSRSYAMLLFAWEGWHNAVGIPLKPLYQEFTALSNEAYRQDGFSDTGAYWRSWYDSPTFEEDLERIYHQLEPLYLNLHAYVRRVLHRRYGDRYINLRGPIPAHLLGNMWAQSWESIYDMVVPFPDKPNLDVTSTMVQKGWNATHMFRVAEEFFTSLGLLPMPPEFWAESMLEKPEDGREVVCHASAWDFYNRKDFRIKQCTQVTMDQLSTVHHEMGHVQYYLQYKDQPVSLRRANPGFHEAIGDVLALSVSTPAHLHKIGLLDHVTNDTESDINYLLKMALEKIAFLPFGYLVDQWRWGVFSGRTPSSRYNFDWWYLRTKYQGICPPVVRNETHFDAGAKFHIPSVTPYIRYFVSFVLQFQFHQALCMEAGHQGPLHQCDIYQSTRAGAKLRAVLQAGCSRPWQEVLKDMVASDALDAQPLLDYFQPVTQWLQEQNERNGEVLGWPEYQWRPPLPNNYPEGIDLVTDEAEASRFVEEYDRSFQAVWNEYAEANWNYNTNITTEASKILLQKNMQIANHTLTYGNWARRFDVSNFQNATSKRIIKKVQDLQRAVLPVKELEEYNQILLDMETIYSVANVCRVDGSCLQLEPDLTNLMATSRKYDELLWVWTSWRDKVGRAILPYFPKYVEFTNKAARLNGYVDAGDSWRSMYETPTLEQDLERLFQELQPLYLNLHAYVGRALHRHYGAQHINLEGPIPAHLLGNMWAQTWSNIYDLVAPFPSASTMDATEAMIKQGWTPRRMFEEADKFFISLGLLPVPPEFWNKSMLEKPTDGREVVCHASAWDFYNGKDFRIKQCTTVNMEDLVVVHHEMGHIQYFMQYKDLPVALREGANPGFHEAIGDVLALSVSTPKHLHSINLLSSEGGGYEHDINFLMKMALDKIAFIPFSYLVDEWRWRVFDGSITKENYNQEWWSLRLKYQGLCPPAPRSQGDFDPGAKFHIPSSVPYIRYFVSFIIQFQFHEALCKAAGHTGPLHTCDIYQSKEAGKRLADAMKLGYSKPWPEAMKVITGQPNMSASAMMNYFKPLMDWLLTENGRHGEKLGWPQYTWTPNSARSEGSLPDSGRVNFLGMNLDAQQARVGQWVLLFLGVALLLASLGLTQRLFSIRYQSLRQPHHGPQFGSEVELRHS
Put plainly: ACE-inhibitory activity assay (HHL substrate, hippuric acid by RP-HPLC). Particulars: HHL 5 mM, pH 8.3, 37 °C, 45 min; for inhibition at 1000 µg/mL: synthetic peptides dissolved at 1 mg/mL; for IC50: synthetic peptides, mean ± SD, SD, read-out: IC50 of ACE inhibition. The format is biochemical. How it is done:
The ACE-inhibitory activity was determined according to the method of Ma et al., with some modification. Briefly, 50 µL of sample in 0.1 mol/L borate buffer (pH 8.3, containing 0.3 M NaCl) was mixed with 150 µL of 5 mM hippuryl-l-histidyl-l-leucine (HHL) and incubated at 37 °C for 10 min. Then, the reaction was initiated by adding 50 µL of ACE solution (50 mU/mL) and incubating at 37 °C for 45 min. The reaction was then stopped by the addition of 250 µL of 1 M HCl. The formation of hippuric acid (HA) was measured by RP-HPLC (Waters, Milford, MA, USA) at 220 nm.
The screened and predicted potential ACE-inhibitory peptides were chemically synthesized at Genscript biotech corporation (Nanjing, China) using the Fmoc solid-phase method. […] Synthetic peptides were dissolved at 1 mg/mL for validation of their ACE-inhibitory activity.

Where no end group is shown, it is not given here.

Turning to `C[C@H](CS)C(=O)N1CCC[C@H]1C(=O)O` [captopril], in assay [1], the “time course of antihypertensive effect compared with GLP” value is reported as “reached its maximum effect faster than GLP”.

With RLVPVPY [RLVPVPY], at ACE from rabbit lung, testing at 1000 µg/mL gave an inhibition of 87.7% and the IC50 is 9.18 ± 0.42 µM.

Take SFYYGK [SFYYGK]: at ACE from rabbit lung, at 1000 µg/mL the inhibition was 94.2% and the IC50 was determined as 6.45 ± 0.22 µM.

In general, inhibition refers to the drop in the measured response relative to a control, in per cent. High values mean a strong effect, low ones a weak effect. As usually defined, the IC50 is the concentration that inhibits the measured activity by half.

The values above are taken from article PMC9739792, “Screening and Molecular Mechanisms of Novel ACE-Inhibitory Peptides from Gracilariopsis lemaneiformis” (International Journal of Molecular Sciences, 2022).
